“And” between values parts separate entries of the source, which are not always exact repeats. Identical values can stand only once.
Experiments:
DPPH· scavenging = assay type: biochemical; conditions: mean ± SD, n = 3
COX-2 = target: T1, COX-2 (Homo sapiens, UniProt P35354); assay: Anti-COX-2 assay (COX-2 Inhibitor Screening Kit); assay type: biochemical
T1 construct: purchased Beyotime S0168
T1 sequence (P35354 18-604): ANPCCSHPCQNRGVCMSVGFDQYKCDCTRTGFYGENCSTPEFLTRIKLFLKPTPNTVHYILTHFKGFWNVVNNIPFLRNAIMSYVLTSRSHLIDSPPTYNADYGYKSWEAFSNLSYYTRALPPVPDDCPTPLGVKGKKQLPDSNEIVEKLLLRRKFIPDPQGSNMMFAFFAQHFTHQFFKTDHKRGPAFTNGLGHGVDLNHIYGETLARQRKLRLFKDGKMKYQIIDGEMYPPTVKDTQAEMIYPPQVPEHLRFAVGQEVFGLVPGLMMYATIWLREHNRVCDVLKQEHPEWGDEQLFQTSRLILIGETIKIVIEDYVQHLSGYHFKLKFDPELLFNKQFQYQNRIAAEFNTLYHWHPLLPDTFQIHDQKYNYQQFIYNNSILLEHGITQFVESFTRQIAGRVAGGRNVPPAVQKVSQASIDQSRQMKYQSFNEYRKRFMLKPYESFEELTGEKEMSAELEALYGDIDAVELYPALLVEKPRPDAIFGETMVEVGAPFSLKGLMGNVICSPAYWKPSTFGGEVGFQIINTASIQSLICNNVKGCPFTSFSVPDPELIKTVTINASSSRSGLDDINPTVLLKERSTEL

[1] = Fluorescent AGEs formation in a BSA-fructose/glucose system; assay type: biochemical; conditions: mean ± SD, n = 3; read-out: BSA-glycation IC50
Procedure, shortened: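 Fluorescent AGE inhibition was measured in triplicate, correcting sample and control fluorescence for BSA-free blanks. Glycation used BSA incubated with D-fructose and D-glucose, with samples dissolved in DMSO:water (1:4).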

[2] = FRAP total antioxidant capacity; assay type: biochemical;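 also: colourimetric FRAP kit assay read as absorbance in 96-well plates, values as mM FeSO4 via standard curve, EC1 being sample concentration matching 1.0 mmol/L FeSO4, Trolox positive control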
[3] = ABTS·+ decolourisation capacity; assay type: biochemical; conditions: mean ± SD, n = 3
Procedure, shortened: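 IC50 values were derived graphically from dose-inhibition curves, with % inhibition calculated versus a buffer-only (0.2 M phosphate, pH 7.4) control. Each sample (200 μl) reacted for 10 min with 100 μl ABTS·+ reagent pre-set to A729 0.8 ± 0.05, then absorbance at 729 nm was measured in triplicate.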

[4] = Online UPLC-PDA-MS-ABTS·+ scavenging (postcolumn derivatisation); conditions: within DOF extract
Protocol: Online identification of antioxidant components of DOF extract was performed using a UPLC system (Milford, MA, USA) consisting of a Waters photodiode array detector and a Waters postcolumn derivatisation system supplying fresh ABTS solution (UPLC-PDA-QDa-ABTS). […] The detection wavelengths were set at 280 and 734 nm, and the injection volume of the sample was 10 μl.
To detect radical scavengers, the UPLC system was coupled with a Waters pump, which supplied freshly prepared ABTS·+ solution into a reaction coil (15 m, 0.25 mm ID) with a flow rate of 0.2 ml/min at 37°C. Negative peaks were recorded based on a decrease of absorbance at 729 nm after the reaction of individual compounds with the ABTS·+ radical. For preliminary identification of compounds, a Waters Acquity QDa mass detector in negative ionisation mode was connected in series to PDA with the following parameters: electrospray ion source; cone voltage, 15 V; atomiser, N2; and scanning range, 100–800 m/z.

[5] = lower part of sheet (compound series)

In the case of `O=c1cc(-c2ccc(O)cc2)oc2c(C3OC(CO)C(O)C(O)C3O)c(O)c(C3OC(CO)C(O)C(O)C3O)c(O)c12` (stereo not shown) [compound 10, Vicenin-2], the IC50 (DPPH· scavenging) is reported as greater than 5000 µM, the “COX-2 inhibition (in words)” value (COX-2) is reported as “no inhibitory effects” and the inhibition at 31.25 µM (COX-2; 31.25 μM, single replicates) is reported as 30%. The COX-2 inhibition (COX-2; 31.25 μM, single replicates, listed as T7, 31.25 µM) was 20.65% and 19.20%, the COX-2 inhibition (COX-2; 62.5 μM, single replicates, listed as T7, 62.5 µM) was -16.69% and -16.14% and 33.41% and the COX-2 inhibition (COX-2; 125 μM, single replicates, listed as T7, 125 µM) was -28.47% and -18.44% and 17.41%. For the same compound, the COX-2 inhibition (COX-2; 250 μM, single replicates, listed as T7, 250 µM) was -29.84% and -23.37% and -7.75%, the COX-2 inhibition (COX-2; 500 μM, single replicates, listed as T7, 500 µM) was -24.98% and -23.56% and -9.18% and the COX-2 inhibition (COX-2; 1000 μM, single replicates, listed as T7, 1000 µM) was -59.66% and -32.74% and -11.22%. For the same compound, the COX-2 inhibition (COX-2; 2000 μM (2mM), single replicates, listed as T7) was -38.84% and -31.81% and -15.79%, the IC50 [1] was 258 ± 7.56 µM and the “FRAP EC1” value [2, 5] was greater than 5000 µM. The IC50 [3] was 74.41 ± 0.69 µM and the “online ABTS radical scavenging (size of negative peaks at 734 nm)” value [4] was “strongest ABTS radical scavengers”.
With `C[C@@H]1O[C@@H](OC[C@H]2O[C@@H](Oc3c(-c4ccc(O)c(O)c4)oc4cc(O)cc(O)c4c3=O)[C@H](O)[C@@H](O)[C@@H]2O)[C@H](O)[C@H](O)[C@H]1O` [compound 24, Rutin] the IC50 (DPPH· scavenging) was 43.3 ± 1.75 µM, the “COX-2 inhibition (in words)” value (COX-2) was “great COX-2 inhibition” and the inhibition at 3.125 µM (COX-2; 3.125 μM, single replicates) was 23.1%. The COX-2 inhibition (COX-2; 3.125 μM, single replicates, listed as T3, 3.125 µM) was 13.73% and 18.58%, the inhibition at 6.25 µM (COX-2; 6.25 μM, single replicates) was 42.8% and the COX-2 inhibition (COX-2; 6.25 μM, single replicates, listed as T3, 6.25 µM) was 37.16%. The COX-2 inhibition (COX-2; 12.5 μM, single replicates, listed as T3, 12.5 µM) was 68.24% and 51.05% and 71.69%, the inhibition at 25 µM (COX-2; 25 μM, single replicates) was 78% and the COX-2 inhibition (COX-2; 25 μM, single replicates, listed as T3, 25 µM) was 72.08% and 76.61%. The inhibition at 50 µM (COX-2; 50 μM, single replicates) was 81.2%, the COX-2 inhibition (COX-2; 50 μM, single replicates, listed as T3, 50 µM) was 77.16% and 78.42% and the inhibition at 100 µM (COX-2; 100 μM, single replicates) was 81.5%. The COX-2 inhibition (COX-2; 100 μM, single replicates, listed as T3, 100 µM) was 79.28% and 81.06%, the inhibition at 200 µM (COX-2; 200 μM, single replicates) was 84.3% and the COX-2 inhibition (COX-2; 200 μM, single replicates, listed as T3, 200 µM) was 81.14% and 83.16%. The IC50 [1] was 222 ± 13.5 µM, the “FRAP EC1” value [2, 5] was 205.0 ± 12.2 µM and the “FRAP EC1” value ([2]; mean ± SD, n = 3) was 205.0 ± 12.2 µM. The IC50 [3] was 33.1 ± 0.37 µM and the “online ABTS radical scavenging (size of negative peaks at 734 nm)” value [4] was “strongest ABTS radical scavengers”.

Source: publication PMC10064984, “Anti-cyclooxygenase, anti-glycation, and anti-skin aging effect of Dendrobium officinale flowers’ aqueous extract and its phytochemical validation in aging” (Frontiers in Immunology, 2023)
